According to US7928078B2, “Conjugates of immune cell specific macrolide compounds with anti-inflammatory compounds for improved cellular targeting of anti-inflammatory therapy” (GlaxoSmithKline Istrazivacki Centar Zagreb D.O.O., priority 2001, dated 2011):

Assays:
[1] = target: T1, alpha isoform of human glucocorticoid receptor (Homo sapiens, UniProt P04150); experiment: Assay of binding to the human glucocorticoid receptor ([3H] dexamethasone competition in transfected COS-1 cells); settings: 24 nM [3H] dexamethasone
T1 construct: expressed in transfected cells; host or cells: COS-1 cells, transient transfection with pcDNA3.1 hygro(+) carrying the GR alpha cDNA
T1 sequence (P04150 1-777): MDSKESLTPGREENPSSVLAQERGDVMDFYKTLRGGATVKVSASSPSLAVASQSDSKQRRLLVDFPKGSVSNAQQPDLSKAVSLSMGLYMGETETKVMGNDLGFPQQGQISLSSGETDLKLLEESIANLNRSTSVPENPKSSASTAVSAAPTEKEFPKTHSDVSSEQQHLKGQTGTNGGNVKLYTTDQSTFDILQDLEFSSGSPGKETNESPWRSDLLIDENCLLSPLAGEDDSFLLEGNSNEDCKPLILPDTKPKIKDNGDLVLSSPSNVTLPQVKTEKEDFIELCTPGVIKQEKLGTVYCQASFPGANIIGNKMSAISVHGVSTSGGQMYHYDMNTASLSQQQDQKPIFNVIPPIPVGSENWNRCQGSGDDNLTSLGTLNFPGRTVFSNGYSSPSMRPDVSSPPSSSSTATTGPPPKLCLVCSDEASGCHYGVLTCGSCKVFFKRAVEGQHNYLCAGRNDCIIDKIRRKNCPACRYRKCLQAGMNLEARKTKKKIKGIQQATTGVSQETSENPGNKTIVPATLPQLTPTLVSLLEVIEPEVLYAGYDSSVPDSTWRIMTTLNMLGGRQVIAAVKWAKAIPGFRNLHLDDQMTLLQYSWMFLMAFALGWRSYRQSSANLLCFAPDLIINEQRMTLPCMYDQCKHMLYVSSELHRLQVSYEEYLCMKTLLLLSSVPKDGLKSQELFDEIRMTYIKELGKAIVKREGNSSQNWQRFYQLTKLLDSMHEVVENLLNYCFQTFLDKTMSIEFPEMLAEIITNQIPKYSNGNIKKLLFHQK
Description: Assay of Binding to the Human Glucocorticoid Receptor
The gene for alpha isoform of human glucocorticoid receptor was cloned by reverse polymerase chain reaction. The total RNA was isolated from human peripheral blood lymphocites according to the instructions of the manufacturer (Qiagen), transcripted into cDNA with AMV reverse transcriptase (Roche) and the gene was multiplied by specific primers
The obtained reaction product was cloned into XhoI/BamHI site of Bluescript KS plasmid (Stratagene), subjected to sequencing by dideoxy fluorescent method with M13 and M13 rev primers (Mycrosynth) and then it was cloned into XhoI/BamHI site of pcDNA3.1 hygro(+)plasmid (Invitrogen). 1×10^5 COS-1 cells were seeded onto a 12-well plate (Falcon) in DMEM medium (Life Technologies) with 10% FBS (Biowhitaker) and cultivated up to a 70% confluence at 37° C. in an atmosphere with 5% CO2. The medium was removed and 1 μg of DNA, 7 μl of PLUS reagent and 2 μl of Lipofectamine (Life Technologies) in 500 μl DMEM were added per well. The cells were incubated at 37° C. in an atmosphere with 5% CO2 and after 5 hours the same volume of 20% FBS/DMEM was added. After 24 hours the medium was completely changed. 48 hours after the transfection, the test compounds in different concentrations and 24 nM [^3H] dexamethasone (Pharmacia) in DMEM medium were added. The cells were incubated for 90 minutes at 37° C. in an atmosphere with 5% CO2, washed three times with PBS buffer (Sigma), cooled to 4° C. (pH=7.4) and then lyzed in Tris buffer (pH=8.0) (Sigma) with 0.2% SDS (Sigma). After the addition of UltimaGold XR (Packard) scintillation liquid, the residual radioactivity was read in a Tricarb (Packard) β-scintillation counter.

[2] = system: mouse T-cell hybridoma 13; experiment: Assay of inhibition of mouse T-cell hybridoma 13 proliferation as a result of apoptose induction; assay type: cell-based; settings: [3H] thymidine incorporation
Protocol: Assay of Inhibition of Mouse T-Cell Hybridoma 13 Proliferation as a Result of Apoptose Induction
In a 96-well plate triplicates of test steroid dilution in RPMI medium (Immunoloski zavod) with […] were performed. To the solutions of compounds 20 000 cells per well were added and incubated overnight at 37° C. in an atmosphere with 5% CO2, then 1 μCi of [^3H] thymidine (Pharmacia) was added and it was incubated for additional 3 hours. The cells were harvested by sucking over GF/C filter (Packard). Onto each well 30 μl of Microscynt O scintillation liquid (Packard) were added and the incorporated radioactivity was measured on a β-scintillation counter (Packard). The specifity of apoptose induction by glucocorticoids was proven by antagonising the proliferation inhibition with mifepristone (Sigma).

[3] = system: interleukin-2 production induced by the stimulation via CD3 receptor; experiment: Assay of inhibition of interleukin-2 production; assay type: cell-based, mouse
Protocol: Assay of Inhibition of Interleukin-2 Production
Onto a 96-well plate (Nunc) 15 ng of 2C11 antibodies (Pharmingen) per well were added and left to adsorb in PBS buffer (pH=7.4) overnight at 4° C. PBS was removed, the plate was washed with RPMI medium and then 50,000 cells per well were added and incubated in the medium with and without a dilution of the test compounds. The concentration of IL-2 in the supernatant was measured by ELISA specific for mouse IL-2 (R&D Systems).

[4] = system: OVA-induced lung eosinophilia; experiment: Model of lung eosinophilia in mice; assay type: in vivo, Balb/C mice; settings: daily i.n. or i.p., different doses, 48 hours after OVA, t-test, p<0.05
Protocol: Model of Lung Eosinophilia in Mice
Male Balb/C mice with a body weight of 20-25 g were randomly divided into groups. They were sensibilized by an i.p. injection of ovalbumine (OVA, Sigma) on zero day and on the fourteenth day. On the twentieth day the mice were subjected to a provocative test by i.n. application of OVA (positive control or test groups) or PBS (negative control). 48 hours after i.n. application of OVA, the animals were anesthetized and the lungs were rinsed with 1 ml of PBS. The cells were separated on Cytospin 3 cytocentrifuge (Shandon). The cells were stained in Diff-Quick (Dade) and the percentage of eozinophiles was determined by differential counting of at least 100 cells.
Fluticasone and beclomethasone were used as standard substances under positive and negative control.
The compounds were administered daily i.n. or i.p. in different doses 2 days before provocative test and up to the completion of the test.

[5] = Influence of compounds on the thymus weight; settings: rats, s.c. implanted impregnated pellets, 7 days
Description: Influence of Compounds on the Thymus Weight
Male Sprague Dawley rats with a body weight of 200 g were randomly divided into groups of six animals. To anaesthetized animals sterilized weighed pellets of filter paper were implanted s.c. dorsally. The pellets in the control group were impregnated with acetone, whereas in the test groups they were impregnated either with the standard (prednisolone, Sigma) or with the compound 10. After 7 days the animals were put to sleep and their thymuses were isolated and weighed. The systemic effects were estimated by comparing the thymus weight in the test and control groups.

[6] = system: CHO and COS-1 cells; experiment: Assay of steroid introduction into cells; assay type: cell-based; settings: 1 μM radioactive compound, 90 minutes, 37° C.
Protocol: Assay of Steroid Introduction into Cells
CHO and COS-1 cells were cultivated up to confluence in 75 cm^2 flasks in Hamm F 12 medium (Life Technologies) with 10% FBS (CHO) or in DMEM medium with 10% FBS (COS-1). 1 μM of radioactive compound 10 with total 2 μCi activity was added onto the cells and it was incubated for 90 minutes at 37° C. in an atmosphere with 5% CO2. The cell supernatant was collected, the cells were lysed and then the radioactivity in the cell lysate as well as in the cell supernatant was read.

| Structure (SMILES) | competition with radioactive dexamethasone in the binding site on the glucocorticoid receptor [1] | inhibition of cell hybridoma 13 proliferation [2] | inhibition of interleukin-2 production [3] | number of eosinophiles in the lung rinse with regard to the positive control [4] | melting point [°C] | effect on thymus weights with regard to the control [5] | accumulation in the cells versus cell supernatant [6] |
| --- | --- | --- | --- | --- | --- | --- | --- |
| CC[C@H]1OC(=O)[C@H](C)[C@@H](O[C@@H]2C[C@](C)(OC)[C@H](O)C(C)O2)[C@H](C)[C@@H](O[C@@H]2O[C@H](C)C[C@@H](N(C)C)[C@H]2O)[C@](C)(O)C[C@@H](C)CN(CCCNC(=O)[C@@]2(O)[C@H](C)CC3C4C[C@H](F)C5=CC(=O)C=C[C@]5(C)[C@@]4(F)[C@@H](O)C[C@@]32C)[C@H](C)[C@@H](O)[C@]1(C)O (stereo partly drawn) [Compound 9] | able to compete with radioactive dexamethasone | demonstrated an inhibition | demonstrate an inhibition | statistically significantly (t-test, p<0.05) reduced | 169 | – | – |
| C[C@]12C=CC(=O)C=C1CC[C@@H]1[C@@H]2[C@@H](O)C[C@@]2(C)[C@H]1CC[C@]2(O)C(=O)CO [standard, prednisolone] | – | – | – | – | – | statistically significantly reduced the thymus weights | – |
| CC[C@H]1OC(=O)[C@H](C)[C@@H](O[C@@H]2C[C@](C)(OC)[C@H](O)C(C)O2)[C@H](C)[C@@H](O[C@@H]2O[C@H](C)C[C@@H](N(C)C)[C@H]2O)[C@](C)(O)C[C@@H](C)CN(CCCNC(=O)[C@@]2(O)CCC3C4CCC5=CC(=O)CC[C@]5(C)C4[C@@H](O)C[C@@]32C)[C@H](C)[C@@H](O)[C@]1(C)O (stereo partly drawn) [Compound 8] | – | demonstrated an inhibition | – | statistically significantly (t-test, p<0.05) reduced | 144 | – | – |
| CC[C@H]1OC(=O)[C@H](C)[C@@H](O[C@@H]2C[C@](C)(OC)[C@H](O)C(C)O2)[C@H](C)[C@@H](O[C@@H]2O[C@H](C)C[C@@H](N(C)C)[C@H]2O)[C@](C)(O)C[C@@H](C)CN(CCCNC(=O)[C@@]2(O)[C@H](C)CC3C4CCC5=CC(=O)C=C[C@]5(C)[C@@]4(F)[C@@H](O)C[C@@]32C)[C@H](C)[C@@H](O)[C@]1(C)O (stereo partly drawn) [Compound 10] | able to compete with radioactive dexamethasone | demonstrated an inhibition | demonstrate an inhibition | statistically significantly (t-test, p<0.05) reduced | 170 to 175 | – | able to accumulate in the cells in a greater concentration than in the supernatant |
